This is an account of results in patent US7968585B2, “Inhibitors of 11-beta-hydroxysteroid dehydrogenase 1” (Eli Lilly and Company, priority 2006, dated 2011).

One experiment has as its target T1, 11β-HSD1 (Homo sapiens, UniProt P28845).
T1 construct: assay medium containing 12 ng/mL hTNFα to induce expression of 11β-HSD1; endogenous in cells; host or cells: primary human aortic smooth muscle cells (AoSMC), induced with hTNFα
The experiment in a line: Human Aortic Smooth Muscle Cell Assay (cortisone to cortisol conversion). The note with it: primary human aortic smooth muscle cells (AoSMC), hTNFα induced, cortisol immunoassay. The experiment is classed as cell-based. As for the experimental part:
Human Aortic Smooth Muscle Cell Assay
Primary human aortic smooth muscle cells (AoSMC) are cultured in 5% FBS growth medium to a passage number of 6, then pelleted by centrifugation and resuspended at a density of 9×10^4 cells/mL in 0.5% FBS assay medium containing 12 ng/mL hTNFα to induce expression of 11β-HSD1. Cells are seeded into 96-well tissue culture assay plates at 100 μL/well (9×10^3 cells/well) and incubated for 48 hours at 37° C., 5% CO2. Following induction, cells are incubated for 4 hours at 37° C., 5% CO2 in assay medium containing test compounds then treated with 10 μL/well of 10 μM cortisone solubilized in assay medium, and incubated for 16 hours at 37° C., 5% CO2. Medium from each well is transferred to a plate for subsequent analysis of cortisol using a competitive fluorescence resonance time resolved immunoassay. In solution, an allophycocyanin (APC)-cortisol conjugate and free cortisol analyte compete for binding to a mouse anti-cortisol antibody/Europium (Eu)-anti mouse IgG complex. Higher levels of free cortisol result in diminishing energy transfer from the Europium-IgG to the APC-cortisol complex resulting in less APC fluorescence. Fluorescent intensities for Europium and APC are measured using a LJL Analyst AD. Europium and APC excitation is measured using 360 nm excitation and 615 nm and 650 nm emission filters respectively. Time resolved parameters for Europium were 1000 μs integration time with a 200 μs delay. APC parameters are set at 150 μs integration time with a 50 μs delay. Fluorescent intensities measured for APC are modified by dividing by the Eu fluorescence (APC/Eu). This ratio is then used to determine the unknown cortisol concentration by interpolation using a cortisol standard curve fitted with a 4-parameter logistic equation. These concentrations are then used to determine compound activity by plotting concentration versus % inhibition, fitting with a 4-parameter curve and reporting the IC50.

In another experiment the test system is cortisone conversion. The experiment can be described thus: Acute In Vivo Cortisone Conversion Assay. The note with it: male C57BL/6 mice, oral dose of 10 mg/kg, cortisone challenge after 16 hours, serum cortisol. As for the experimental part: Acute In Vivo Cortisone Conversion Assay
In general, compounds are dosed orally into mice, the mice are challenged with a subcutaneous injection of cortisone at a set timepoint after compound injection, and the blood of each animal is collected some time later. Separated serum is then isolated and analyzed for levels of cortisone and cortisol by LC-MS/MS, followed by calculation of mean cortisol and percent inhibition of each dosing group. Specifically, male C57BL/6 mice are obtained from Harlan Sprague Dawley at average weight of 25 grams. Exact weights are taken upon arrival and the mice randomized into groups of similar weights. Compounds are prepared in 1% w-w HEC, 0.25% w-w polysorbate 80, 0.05% w-w Dow Corning antifoam #1510-US at various doses based on assumed average weight of 25 grams. Compounds are dosed orally, 200 μl per animal, followed by a subcutaneous dose, 200 μl per animal, of 30 mg/kg cortisone at 1 to 24 hours post compound dose. At 10 minutes post cortisone challenge, each animal is euthanized for 1 minute in a CO2 chamber, followed by blood collection via cardiac puncture into serum separator tubes. Once fully clotted, tubes are spun at 2500×g, 4° C. for 15 minutes, the serum transferred to wells of 96-well plates (Corning Inc, Costar #4410, cluster tubes, 1.2 ml, polypropylene), and the plates are frozen at −20° C. until analysis by LC-MS/MS. […]

Experiment [1] has as its target recombinant human 11β-HSD type 1 enzyme (Homo sapiens, UniProt P28845). The experiment can be described thus: 11β-HSD Type 1 Enzyme Assay (NADPH fluorescence). The experiment is classed as biochemical. The note with it: three hour incubation, read-out: Human 11-βHSD1 IC50. As for the experimental part: 11β-HSD Type 1 Enzyme Assay
Human 11β-HSD type 1 activity is measured by assaying NADPH production by fluorescence assay. Solid compounds are dissolved in DMSO to a concentration of 10 mM. Twenty microliters of each are then transferred to a column of a 96-well polypropylene Nunc plate where they are further diluted 50-fold followed by subsequent two-fold titration, ten times across the plate with additional DMSO using a Tecan Genesis 200 automated system. Plates are then transferred to a Tecan Freedom 200 system with an attached Tecan Temo 96-well head and an Ultra 384 plate reader. Reagents are supplied in 96-well polypropylene Nunc plates and are dispensed individually into black 96-well Molecular Devices High Efficiency assay plates (40 μL/well capacity) in the following fashion: 9 μL/well of substrate (2.22 mM NADP, 55.5 μM Cortisol, 10 mM Tris, 0.25% Prionex, 0.1% Triton X100), 3 μL/well of water to compound wells or 3 μL to control and standard wells, 6 μL/well recombinant human 11β-HSD type 1 enzyme, 2 μL/well of compound dilutions. […] Plates are then shaken once more for 15 seconds then placed into an Ultra 384 microplate reader (355EX/460EM) for detection of NADPH fluorescence.

The term IC50 denotes the point on the concentration scale where inhibition reaches its midpoint.

T1 sequence (P28845 whole entry): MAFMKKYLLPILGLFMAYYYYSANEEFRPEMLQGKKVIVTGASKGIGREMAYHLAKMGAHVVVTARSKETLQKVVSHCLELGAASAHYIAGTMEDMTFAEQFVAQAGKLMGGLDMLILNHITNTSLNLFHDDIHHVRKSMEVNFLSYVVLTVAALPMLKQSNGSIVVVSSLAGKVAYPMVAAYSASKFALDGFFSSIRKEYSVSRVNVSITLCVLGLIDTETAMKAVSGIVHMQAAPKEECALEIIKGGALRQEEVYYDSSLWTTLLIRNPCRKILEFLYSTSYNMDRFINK
recombinant human 11β-HSD type 1 enzyme, sequence (P28845 whole entry): as above

At 11β-HSD1, `O=C(c1ccc(-c2cc(Cl)c(CN3CCC4(CCCCC4)C3=O)c(Cl)c2)cc1)N1CCC(C(F)(F)F)CC1` [Example 5, 2-[3,5-Dichloro-4′-(4-trifluoromethyl-piperidine-1-carbonyl)-biphenyl-4-ylmethyl]-2-aza-spiro[4.5]decan-1-one] yielded an IC50 of 47 nM. Further, in the experiment on cortisone conversion, the “% Inhibition after 16 hours (dose of 10 (mg/kg))” value was determined as 69.3%.

Take `O=C(c1ccc(-c2cc(Cl)c(CN3CCC4(CCCCC4)C3=O)c(Cl)c2)cc1)N1CCN(CCF)CC1` [Example 6, 2-{3,5-Dichloro-4′-[4-(2-fluoro-ethyl)-piperazine-1-carbonyl]-biphenyl-4-ylmethyl}-2-aza-spiro[4.5]decan-1-one]: the figures for the IC50 (against 11β-HSD1; in experiment [1]) were 20.5 nM and 888 nM, respectively. Further, in the experiment with cortisone conversion, the “% Inhibition after 16 hours (dose of 10 (mg/kg))” value was 41.2%.

Consider `O=C1N(Cc2c(Cl)cc(-c3ccc(F)cc3)cc2Cl)CCC12CCc1n[nH]cc1C2` (stereo not shown) [Example 14], for which the IC50 came to 21.5 nM on 11β-HSD1 and 552 nM in experiment [1].
